# In US9045525B2, “Amyloid β-protein-specific production-inhibiting polypeptide” (THE DOSHISHA, priority 2012, dated 2015):
# Entries after “also recorded” stand apart in the source; their conditions may differ.
# How the values were obtained:
# [1] = molecular target: γ-secretase against βCTF (C99-FLAG) (Homo sapiens, UniProt P05067); assay: γ-Secretase activity inhibition experiment in vitro, C99-FLAG substrate; type: biochemical; details: polypeptide 1, 5, 10, 20, and 50 μM
# Description: (§1) A polypeptide having βCTF (C99-FLAG: SEQ ID NO: 16) and mouse-derived Notch protein having a FLAG peptide at the C-terminal side (modification of NCBI Accession No. Q01705.2; SEQ ID NO: 17; hereunder referred to as “Notch”) shown in FIG. 2(A) were each made into a solution having a final concentration of 50 nM.
# (§2) To these solutions, 9-7 polypeptide, 6-5 polypeptide, #1 polypeptide, #2 polypeptide, #3 polypeptide, and #4 polypeptide were added in such a manner that the final concentrations were 50 μM, followed by reacting with 50 μL of CHAPSO-solubilized membrane fraction (γ-secretase-containing fraction) for 4 hours. The reaction temperature was 37° C. As a negative control experiment, DMSO was used in place of the six types of polypeptides described above.
# (§3) Each sample after completion of the reaction was measured in the following manner. As shown in FIG. 2(A), a sample using C99-FLAG was subjected to Western blotting using a monoclonal antibody (82E-1) that specifically recognizes the N terminal of C99-FLAG, and the amount of Aβ40 protein produced by the cleavarage by γ-secretase was measured. In contrast, the reaction sample using Notch-FLAG was subjected to Western blotting using an anti-FLAG monoclonal antibody, and the amount of NICD produced to the separete by γ-secretase was also measured. FIG. 2(B) and FIG. 2(C) show the results.
# (§4) An experiment was conducted in the same manner as in Experimental Example 1 described above, except that only #1 polypeptide was used and the amount of #1 polypeptide was selected so that the final concentrations were 0.5, 1, 5, 10, 20, and 50 μM.
# (§5) An experiment was conducted in the same manner as in Experimental Example 1 described above, except that S4 polypeptide was used as the polypeptide, and each addition amount was set in such a manner that the final concentrations were 1, 5, 10, 20, and 50 μM. In this Experimental Example, #4 polypeptide was added in such a manner that the final result was 50 μM.
# [2] = system: sialyltransferase (st6gal), substrate of β-secretase, in 7WD10 cells; assay: Cleavage of sialyltransferase (st6gal) in 7WD10 cells; type: cell-based; details: polypeptide 25 μM and 50 μM
# Description: An experiment was conducted in the same manner as Experimental Example 6 except that only S4 polypeptide was used as the polypeptide; the S4 polypeptide was added to have the final concentrations of 25 μM and 50 μM; the cell used in this experiment was CHO-K1 cell (7WD10 cell) that expressed APP protein and transiently expressed Notch and sialyltransferase (st6gal), which is the substrate of β-secretase; and confirmation of cleavage by sialyltransferase was conducted in addition to the confirmation of the production of Aβ protein and cleavage of Notch protein.
# [3] = system: CHO-K1 cells (7WD10 cells) that stably expressed APP protein; assay: Aβ protein production inhibition experiment in 7WD10 cells (sAPPβ, βCTF, Aβ); type: cell-based; details: polypeptide 25 μM and 50 μM; cells also expressing st6gal
# Description: (§6) An experiment was conducted wherein #1, #2, and #4 polypeptides were reacted with CHO-K1 cells (7WD10 cells) that stably expressed APP protein and transiently expressed Notch to confirm the production of Aβ protein and cleavage of Notch protein.
# [4] = molecular target: γ-secretase against Notch (Mus musculus, UniProt Q01705, V1997L); assay: γ-Secretase activity inhibition experiment in vitro, Notch-FLAG substrate; type: biochemical; details: polypeptide 1, 5, 10, 20, and 50 μM
# Description: as §1, §2, §3, §4, §5
# [5] = molecular target: β-secretase against APP (APP-EQ-FLAG) (Homo sapiens, UniProt P05067); assay: β-Secretase activity inhibition experiment in vitro, APP-EQ-FLAG substrate; type: biochemical; details: polypeptide 1, 5, 10, 20, 50, and 100 μM
# Description: A solution containing the polypeptide having APP (APP-EQ-FLAG: SEQ ID NO: 18) as shown in FIG. 5(A) was prepared in such a manner that its final concentration was 50 nM.
# To this solution, 9-7 polypeptide, 6-5 polypeptide, #1 polypeptide, #2 polypeptide, #3 polypeptide, #4 polypeptide, #5 polypeptide, #6 polypeptide, #7 polypeptide, #8 polypeptide, #9 polypeptide, and #10 polypeptide were added in such a manner that each solution had the final concentration of 50 μM, followed by reacting with 50 μL β-secretase (0.02 U/μL) for 4 hours. The reaction temperature was 37° C. As a negative control experiment, DMSO was used in place of the 12 types of polypeptides mentioned above.
# After completion of the reaction, each sample was subjected to Western blotting using a monoclonal antibody (82E-1) that specifically recognizes the N terminal of APP-EQ-FLAG as shown in FIG. 5(A). Thereafter, the amount of Aβ33-FLAG protein separated by β-secretase was measured.
# An experiment was conducted in the same manner as Experimental Example 4 described above except that S4 and #4 polypeptides were used as the polypeptide and the amounts of these polypeptides added were adjusted so that the final concentrations were 1, 5, 10, 20, 50, and 100 μM.
# [6] = system: Notch transiently expressed in CHO-K1 cells (7WD10 cells); assay: Cleavage of Notch protein (NICD) in 7WD10 cells; type: cell-based; details: polypeptide 25 μM and 50 μM; cells also expressing st6gal
# Description: as §6
# Sequence of β-secretase against APP (APP-EQ-FLAG) (P05067 with tags, fused parts or gaps): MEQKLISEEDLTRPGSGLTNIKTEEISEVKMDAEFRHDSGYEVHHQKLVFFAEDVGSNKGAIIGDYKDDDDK
# Sequence of γ-secretase against Notch (Q01705 with tags, fused parts or gaps V1997L): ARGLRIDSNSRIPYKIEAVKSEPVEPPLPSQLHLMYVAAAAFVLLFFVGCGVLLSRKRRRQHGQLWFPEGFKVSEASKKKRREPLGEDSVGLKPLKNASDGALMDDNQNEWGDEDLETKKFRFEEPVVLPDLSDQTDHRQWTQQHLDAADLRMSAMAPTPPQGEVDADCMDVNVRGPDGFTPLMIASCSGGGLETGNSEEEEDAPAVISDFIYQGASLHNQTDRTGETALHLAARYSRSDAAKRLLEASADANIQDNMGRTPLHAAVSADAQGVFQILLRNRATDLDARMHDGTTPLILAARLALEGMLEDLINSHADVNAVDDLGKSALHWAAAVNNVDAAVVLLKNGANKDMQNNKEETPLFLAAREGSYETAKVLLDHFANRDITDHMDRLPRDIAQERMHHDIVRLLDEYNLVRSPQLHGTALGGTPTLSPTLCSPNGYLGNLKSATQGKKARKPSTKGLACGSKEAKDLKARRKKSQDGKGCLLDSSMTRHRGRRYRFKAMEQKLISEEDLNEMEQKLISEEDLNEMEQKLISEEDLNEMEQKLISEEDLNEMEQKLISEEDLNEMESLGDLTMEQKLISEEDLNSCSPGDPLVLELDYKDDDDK
# Sequence of γ-secretase against βCTF (C99-FLAG) (P05067 with tags, fused parts or gaps): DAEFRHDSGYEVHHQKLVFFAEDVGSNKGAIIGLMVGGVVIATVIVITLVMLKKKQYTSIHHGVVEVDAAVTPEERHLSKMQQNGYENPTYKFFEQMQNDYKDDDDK
sequence,measurement,setting,value
FGBTWDYWVYR [S4],cleavage activity of γ-secretase against βCTF,[1],inhibits more intensely in a concentration-dependent manner the cleavage activity of γ-secretase against βCTF
same,st6gal production amount in the cell culture medium,[2],not decreased
same,Aβ protein (intracellular Aβ) in the cell lysate,[3],decreased
same,amount of Aβ protein (released Aβ) in the cell culture medium,[3],reduced
same,sAPPβ production amount in the cell culture medium,[3],reduced
same,cleavage activity of γ-secretase against Notch (NICD),[4],not inhibited
same,cleavage activity of β-secretase against APP,[5],"inhibited the cleavage activity of β-secretase against APP, although inferior to #4 polypeptide; also recorded: inhibited the cleavage activity of β-secretase against APP in a concentration-dependent manner"
same,amount of NICD in the cell lysate,[6],did not decrease
